Test results: publication PMC5426640, “A novel multifunctional peptide oligomer of bacitracin with possible bioindustrial and therapeutic applications from a Korean food-source Bacillus strain” (PLoS ONE, 2017)
Where a SMILES comes first, the peptide text is derived from it. Bridges are numbered along the chain shown (N, C = ends). [ ]: non-standard residue; d: D form. The star is where a group is joined. Ileψ(thiazoline)Cys = CC[C@H](C)[C@H](N)C1=N[C@H](C(=O)*)CS1; dOrn = NCCC[C@@H](N)C(=O)O

How the values were obtained:
Type in all cases: cell-based, mouse
[1] = tested on: NO production in LPS-stimulated RAW 264.7 cells; assay: LPS-induced NO production, Griess reaction; settings: 10, 50, or 100 μg/mL; LPS 1 μg/mL, 24 h; Griess reagent
Experimental: NO levels in the culture supernatants were measured by the Griess reaction. Cells (10^6 cells/mL) were seeded in 6-well plates and pretreated with the indicated concentrations of AMP for 30 min before stimulation with 1 μg/mL LPS for 24 h. The sample supernatants were mixed with an equal volume of the Griess reagent (1% sulfanilamide in 5% phosphoric acid and 0.1% naphthyl ethylene diamine dihydrochloride), and then incubated at room temperature for 10 min. The absorbance was measured at 550 nm on a microplate reader (Thermo Fisher Co.). The nitrite concentration was determined using a dilution of sodium nitrite as a standard.

IκBα = assay: Western blot of IκBα phosphorylation in LPS-stimulated RAW 264.7 cells; settings: CSP32 1 h prior to LPS 1 μg/mL
Experimental: (§1) Macrophages were incubated with or without LPS in the presence or absence of the AMPs. Cells were harvested, washed twice with ice-cold Tris-HCl-buffered saline (TBS), and resuspended in lysis buffer [100 mM Tris-HCl, 5 mM EDTA, 50 mM NaCl, 50 mM β- glycerophosphate, 50 mM NaF (sodium fluoride), 0.5% NP-40, 1% sodium deoxycholate, 0.1 mM sodium orthovanadate, and 1% phenylmethylsulfonyl fluoride (PMSF)]. The cytosolic fraction was obtained from the supernatant after […] centrifugation at 4°C for 20 min. Samples (20 μg in terms of protein) were separated by sodium dodecyl sulfate-polyacrylamide gel electrophoresis (SDS-PAGE) in a 10% gel and transferred to polyvinylidene difluoride (PVDF) membranes. The membranes were blocked with 5% nonfat milk in TBS with Tween 20 (0.1%) for 2 h and then incubated with primary antibodies specific for ERK, phospho-ERK, JNK, phospho-JNK, p38 MAPK, phospho-p38 MAPK (all them from Cell Signaling Technology), NF-κB, IκB, and phospho-IκB (1:1000; Santa Cruz Biotechnology). […] After three washes with TBS–Tween 20, the membrane was hybridized with an HRP-conjugated secondary antibody for 1 h. […] The immunoreactive proteins were detected by means of a LAS-3000 Luminescent image analyzer (Fuji Photo Film Co., Ltd., Tokyo, Japan).

NF-κB (p65) = assay: Western blot of NF-κB translocation into the nucleus in LPS-stimulated RAW 264.7 cells; settings: CSP32 1 h prior to LPS 1 μg/mL
Experimental: as §1

CC[C@H](C)[C@H](N)C1=N[C@H](C(=O)N[C@@H](CC(C)C)C(=O)N[C@H](CCC(=O)O)C(=O)N[C@H](C(=O)N[C@H]2CCCCNC(=O)[C@H](CC(N)=O)NC(=O)[C@@H](CC(=O)O)NC(=O)[C@H](Cc3c[nH]cn3)NC(=O)[C@@H](Cc3ccccc3)NC(=O)[C@H]([C@@H](C)CC)NC(=O)[C@@H](CCCN)NC2=O)[C@@H](C)CC)CS1 [CSP32] ({Ileψ(thiazoline)Cys}-L[dE]IK[dOrn]I[dF]H[dD]N; lactam 4-C; N-terminus assumed)
Effect on LPS-induced NO production [1]: attenuated the LPS-induced production of NO to a statistically significant extent | Effect on LPS-increased level of p-IκBα (IκBα): attenuated by CSP32 treatment (dose dependently) | Effect on LPS-induced changes in the levels of p65 in the nucleus and cytoplasm (NF-κB (p65)): attenuated
